Like-named read-outs stand apart in the source and are kept apart here.
Columns and labels:
Na/K-ATPase = molecular target: T1, Na/K-ATPase (Rattus norvegicus, UniProt P06685); assay: Ouabain sensitive 86Rb uptake in cardiac fibroblasts; type: cell-based
T1 construct: In vitro studies were then pursued with cultured isolated cardiac fibroblasts; endogenous in cells; host or cells: primary isolated cardiac fibroblasts in culture
Experimental: (§1) To further examine the molecular basis of this cardiac fibrosis, isolated cardiac fibroblasts were subjected to increase doses of MBG (10^−10, 10^−9, and 10^−8 M). […] Using collagenase digestion, we observed that the vast majority of the proline incorporation was into collagen. Using standardized RT-PCR, we observed a doubling of mRNA for collagen-1 at 24 hours in response to 10 nM of MBG.
(§2) Representative Western blot for procollagen and quantitative densitometric data obtained in response to different doses of (a) MBG (all N=10), (b) MBG 10 nM contrasted with different doses of ouabain (0.1 to 100 nM) and digoxin (10 nM; all N=8). c, ouabain sensitive Rb uptake as a function of MBG and ouabain concentration (N=4 at each concentration for both MBG and ouabain; data expressed as fraction of control). d, relative proline incorporation in the supernatant and matrix, both will and without collagenase digestion (total). Each group (controls and different doses of MBG) contains N=7 replicants. The difference between the total and after collagenase digestion is reported as collagen. […] Bars on quantitative graphs represent the mean.+−.SEM. *P<0.05 and **P<0.01 vs control.

SYF cells = assay: Procollagen expression in SYF cells; type: cell-based; settings: MBG 10 nM
Excerpt: (§3) To examine whether cardiotronic steroids induced collagen synthesis by signaling through the Na/K-ATPase, we performed the following studies. First, we used pharmacological antagonism at several steps in the Na/K-ATPase cascade. Specifically, we used pharmacological antagonism of Src activation with PP2, nonspecific tyrosine kinase inhibition with herbimycin, inhibition of EGFR transactivation with AG1478, and nonspecific antioxidant administration with N-acetyle cysteine. […] Next we performed studies in the SYF and SYF+ cells (details available in the online supplement).
(§4) The effects of PP2 (1 μmol/L), herbimycin (1 μmol/L), AG1478 (250 nM), and N-acetyl cysteine (2.5 mmol/L) on MBG (10 nM) stimulation of procollagen expression also were found. The PP2, herbimycin AG1478, and N-acetyl cysteine were administered from 2 hours before the addition of MBG and continued throughout the 24 hours of MBG incubation (total of 26 hours). Each bar represents the mean.+−.SEM of n=8 experiments. b, effects of PP2 (1 μmol/L) and N-acetyle cysteine (2.5 mmol/L) on MBG (10 nM)-stimulated proline incorporation into collagen. Again, the PP2 an N-acetyl cysteine were added 2 hours before exposure to MBG. Each bar represents the mean.+−.SEM of N=5 experiments. c, effects of MBG 10 nM on procollagen content in SYF and SYF+ cells. Representative Western blots are shown above quantitative data. […]

[1] = tested on: isolated cardiac fibroblasts; assay: Collagen-1 mRNA by standardized RT-PCR in cardiac fibroblasts; type: cell-based, rat; settings: 24 hours, 10 nM
Experimental: Standardized RT-PCR was used to measure gene expression, with GAPDH transcript used as the housekeeping gene, as reported previously.
as §1, §2

SYF+ cells = assay: Procollagen expression in SYF+ cells; type: cell-based; settings: MBG 10 nM
Excerpt: as §3, §4

dermal fibroblasts = assay: Collagen expression in human dermal fibroblasts; type: cell-based; settings: 5 or 10 nM
Excerpt: We next examined whether skin fibroblasts lines had similar response. This was done with dermal fibroblasts kindly provided by Dr. Bashar Kahaleh. […] The magnitude of this response is illustrated by comparison to maximal doses of TGFβ, the “classic” stimulus for fibrosis (see below). In addition, we observed that an immortalized fibroblast line responded similarly to MBG, ouabain and digoxin.
Response of dermal fibroblasts to MBG as compared with TGF beta. Note that increase in collagen expression in MBG is approximately 10 fold with 5 or 10 nM MBG.

[2] = tested on: isolated cardiac fibroblasts; assay: Procollagen stability after cycloheximide in cardiac fibroblasts; type: cell-based, rat; settings: 10 nM
Experimental: as §1, §2

[3] = tested on: isolated cardiac fibroblasts; type: cell-based, rat; settings: 24 hours
Experimental: (§5) Preparation of adult rat cardiac fibroblasts was performed as described previously by Brilla et al. with modifications.
Western blot analysis was performed on protein isolated from tissue homogenates, cell culture whole cell lysates, or nuclear extracts as described previously.
(§6) Representative Western blot for procollagen and quantitative densitometric data obtained in response to different doses of (a) MBG (all N=10), (b) MBG 10 nM contrasted with different doses of ouabain (0.1 to 100 nM) and digoxin (10 nM; all N=8). c, ouabain sensitive Rb uptake as a function of MBG and ouabain concentration (N=4 at each concentration for both MBG and ouabain; data expressed as fraction of control). d, relative proline incorporation in the supernatant and matrix, both will and without collagenase digestion (total). Each group (controls and different doses of MBG) contains N=7 replicants. The difference between the total and after collagenase digestion is reported as collagen. The matrix is the sample that was obtained after removing supernatant and scraping the culture dish. e, mRNA for collagen 1 in MBG-treated (10 nM; N=8) or control (N=8) fibroblasts. f, procollagen stability after cycloheximide treatment. Time 0 is 1 hour after incubation with cycloheximide (20 μg/mL). […] Least-square regression line fit to control (CTL) and MBG data. Bars on quantitative graphs represent the mean.+−.SEM. *P<0.05 and **P<0.01 vs control.
(§7) The PP2, herbimycin AG1478, and N-acetyl cysteine were administered from 2 hours before the addition of MBG and continued throughout the 24 hours of MBG incubation (total of 26 hours). Each bar represents the mean.+−.SEM of n=8 experiments. b, effects of PP2 (1 μmol/L) and N-acetyle cysteine (2.5 mmol/L) on MBG (10 nM)-stimulated proline incorporation into collagen. Again, the PP2 an N-acetyl cysteine were added 2 hours before exposure to MBG. Each bar represents the mean.+−.SEM of N=5 experiments. c, effects of MBG 10 nM on procollagen content in SYF and SYF+ cells. Representative Western blots are shown above quantitative data. SYF blots loaded with 15 μg of protein and SYF+blots loaded with 10 μg of protein. Each bar represents the mean.+−SEM of N-6 determinations In each group. **[…] vs. control.
(§8) The effect of 24 hours of MBG (1 and 10 nM) on TGF-β, Smad 2/3, Smad 4, and pSmad 2/3 expression determined by Western blot. b and c, effects of 24 hours of MBG (10 nM), TGFβ(5 ng/mL), and the TGF-β receptor antagonist SB431542 ([…] on procollagen-1 expression (Western blot) and radiolabeled proline incorporation, respectively also were carried out. SB431542 was added 2 hours before exposure to either TGFβ or MBG (total of 26-hour exposure). Each bar represents the mean.+−.SEM of 6 to 8 determinations. *P<0.05, **P<0.01 vs. control.

[4] = tested on: isolated cardiac fibroblasts; assay: Radiolabeled proline incorporation into collagen (collagen synthesis) in cardiac fibroblasts; type: cell-based, rat; settings: 10^−9 and 10^−8 M
Experimental: as §5
Collagen synthesis rates were determined by the method of Nishida et al. with modification.
as §1, §6
as §7, with “The effects of PP2 (1 μmol/L), herbimycin (1 μmol/L), AG1478 (250 nM), and N-acetyl cysteine (2.5 mmol/L) on MBG (10 nM) stimulation of procollagen expression also were found. The” for “The”
as §8

C[C@]12CC[C@H](O)C[C@@]1(O)CC[C@@H]1[C@@H]2CC[C@]2(C)[C@@H](c3ccc(=O)oc3)C[C@H]3O[C@]132 [MBG, marinobufagenin]
Threshold for inducing collagen expression relative to doses with detectable effects on 86Rb uptake (Na/K-ATPase): log units below | Response of procollagen expression in SYF cells (SYF cells): essentially no response | mRNA for collagen-1 [1]: doubling | Upregulation of procollagen expression in SYF+ cells (SYF+ cells): very similar way as the primary cardiac fibroblast cultures | Increase in collagen expression (dermal fibroblasts): approximately 10 fold | Procollagen stability (procollagen-1 expression after cycloheximide) [2]: did not detect any increases | Increase of procollagen content (Western blot) ([3]; 10^−8 M): about 2 fold | Increase of procollagen content (Western blot) ([3]; 10^−9 M): about 2 fold | Proline incorporation into total protein, matrix and supernatant [4]: significant increases

Reference: US9072751B2, “Na/K-ATPase ligand” (priority 2006, dated 2015)
